Values quoted from earlier work in PubChem BioAssay AID1259409 (Chemical Carcinogenesis Research Information System (CCRIS), 2018).

System: rodent chemically induced tumor inhibition, incidence and multiplicity
Assay: CCRIS tumor inhibitor studies
Conditions: Carcinogen: 7,12-DIMETHYLBENZ[A]ANTHRACENE; 57-97-6; Dose [Inhibitor]: 0.06 MMOL/G DIET DAILY FOR 17 WK STARTING 1 WK PRIOR TO CARCINOGEN TREATMENT AND CONTINUING THROUGH THE END OF THE STUDY; Route [Inhibitor]: ORAL; Species: RAT; Strain/Sex: SPRAGUE-DAWLEY/FEMALE; Target Tissue: Type of Lesion: MAMMARY GLAND: TUMOR; Dose [Carcinogen]: 12 MG IN 1 ML OLIVE OIL ONCE; Promoter: NONE USED

## CSCC[C@H](NC(C)=O)C(=O)O
  tumour outcome (control, treated, inhibition, significance): 59%, 69%, -17%, not calculated
